# Positions of bridges follow the written chain, without caps; N, C: chain ends. Non-standard residues stand in square brackets, D forms with d. Residues, ends and D or L forms follow the SMILES beside them. Trp(1-Me) = Cn1cc(C[C@H](N)C(=O)O)c2ccccc21; 1Nal = N[C@@H](Cc1cccc2ccccc12)C(=O)O; 2Nal = N[C@@H](Cc1ccc2ccccc2c1)C(=O)O
# Experiments:
# [1] = Solubility test at 10 mg/mL (visual inspection and light scattering); format: physicochemical; settings: for Solubility, Condition 1: Acetate pH 4; for Solubility, Condition 2: Acetate pH 5; for Solubility, Condition 3: Phosphate pH 6; for Solubility, Condition 4: Phosphate pH 7; for Solubility, Condition 5: Phosphate pH 7.5
# [2] = tested on: classical complement pathway; experiment: In vitro haemolysis assay (inhibition of classical complement pathway); format: cell-based, human; settings: human serum, sensitized sheep red blood cells; Table 3, given as upper bounds; read-out: IC50, inhibition of hemolysis
# Method in brief: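 Compound dilutions preincubated 15 min at room temperature with diluted human serum (titrated per batch for 70-90% maximal haemolysis), then antibody-sensitized sheep RBC (10^7/well) added for 30 min at 37 °C in Tris/casein buffer, pH 7.4. Stopped with EDTA; haemolysis read at 405 nm; IC50 by 4PL fit.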
Structure (SMILES),"Solubility, Condition 1 [1]","Solubility, Condition 2 [1]","Solubility, Condition 3 [1]","Solubility, Condition 4 [1]","Solubility, Condition 5 [1]",IC50 [2] [nM]
CC[C@H](C)[C@@H]1NC(=O)[C@@H](NC(=O)[C@H](Cc2ccc(O)cc2)NC(C)=O)CSSC[C@@H](C(=O)N[C@H](C(=O)NCC(=O)N[C@@H](C)C(=O)N[C@@H](CCC(=O)O)C(=O)N[C@@H](CO)C(N)=O)[C@@H](C)O)NC(=O)[C@H](CCCNC(=N)N)NC(=O)[C@H](Cc2c[nH]cn2)NC(=O)[C@H](CCC(=O)O)NC(=O)CNC(=O)[C@H](Cc2c[nH]c3ccccc23)NC(=O)[C@H](CC(=O)O)NC(=O)[C@H](CCC(N)=O)NC(=O)[C@H](Cc2cn(C)c3ccccc23)NC1=O [Compound 62] (Ac-YCI[Trp(1-Me)]QDWGEHRCTGAES-NH2; disulfide 2-12),"− (“−” denotes lack of solubility at the given condition, as UV absorbance at 340 nm exceeds 0.1 AU and/or it is visibly turbid or contains particles)","− (“−” denotes lack of solubility at the given condition, as UV absorbance at 340 nm exceeds 0.1 AU and/or it is visibly turbid or contains particles)","+ (“+” denotes solubility at the given condition, as determined by UV absorbance being less than 0.1 AU at 340 nm and the sample being clear when manually inspected)","+ (“+” denotes solubility at the given condition, as determined by UV absorbance being less than 0.1 AU at 340 nm and the sample being clear when manually inspected)","+ (“+” denotes solubility at the given condition, as determined by UV absorbance being less than 0.1 AU at 340 nm and the sample being clear when manually inspected)",< 100
CC[C@H](C)[C@@H]1NC(=O)[C@@H](NC(=O)[C@H](Cc2ccccc2)NC(C)=O)CSSC[C@@H](C(=O)N[C@H](C(=O)NCC(=O)N[C@@H](C)C(=O)N[C@@H](CCC(=O)O)C(=O)N[C@@H](CO)C(N)=O)[C@@H](C)O)NC(=O)[C@H](CCCNC(=N)N)NC(=O)[C@H](Cc2c[nH]cn2)NC(=O)[C@H](CCC(=O)O)NC(=O)CNC(=O)[C@H](Cc2c[nH]c3ccccc23)NC(=O)[C@H](CC(=O)O)NC(=O)[C@H](CCC(N)=O)NC(=O)[C@H](Cc2cccc3ccccc23)NC1=O [Compound 63] (Ac-FCI[1Nal]QDWGEHRCTGAES-NH2; disulfide 2-12),"− (“−” denotes lack of solubility at the given condition, as UV absorbance at 340 nm exceeds 0.1 AU and/or it is visibly turbid or contains particles)","− (“−” denotes lack of solubility at the given condition, as UV absorbance at 340 nm exceeds 0.1 AU and/or it is visibly turbid or contains particles)","+ (“+” denotes solubility at the given condition, as determined by UV absorbance being less than 0.1 AU at 340 nm and the sample being clear when manually inspected)","+ (“+” denotes solubility at the given condition, as determined by UV absorbance being less than 0.1 AU at 340 nm and the sample being clear when manually inspected)","+ (“+” denotes solubility at the given condition, as determined by UV absorbance being less than 0.1 AU at 340 nm and the sample being clear when manually inspected)",< 100
CC[C@H](C)[C@@H]1NC(=O)[C@@H](NC(=O)[C@H](Cc2ccc(O)cc2)NC(C)=O)CSSC[C@@H](C(=O)N[C@H](C(=O)NCC(=O)N[C@@H](C)C(=O)N[C@@H](CCC(=O)O)C(=O)N[C@@H](CO)C(N)=O)[C@@H](C)O)NC(=O)[C@H](CCCNC(=N)N)NC(=O)[C@H](Cc2c[nH]cn2)NC(=O)[C@H](CCC(=O)O)NC(=O)CNC(=O)[C@H](Cc2c[nH]c3ccccc23)NC(=O)[C@H](CC(=O)O)NC(=O)[C@H](CCC(N)=O)NC(=O)[C@H](Cc2ccc3ccccc3c2)NC1=O [Compound 65] (Ac-YCI[2Nal]QDWGEHRCTGAES-NH2; disulfide 2-12),"− (“−” denotes lack of solubility at the given condition, as UV absorbance at 340 nm exceeds 0.1 AU and/or it is visibly turbid or contains particles)","− (“−” denotes lack of solubility at the given condition, as UV absorbance at 340 nm exceeds 0.1 AU and/or it is visibly turbid or contains particles)","+ (“+” denotes solubility at the given condition, as determined by UV absorbance being less than 0.1 AU at 340 nm and the sample being clear when manually inspected)","+ (“+” denotes solubility at the given condition, as determined by UV absorbance being less than 0.1 AU at 340 nm and the sample being clear when manually inspected)","+ (“+” denotes solubility at the given condition, as determined by UV absorbance being less than 0.1 AU at 340 nm and the sample being clear when manually inspected)",< 100
CC[C@H](C)[C@@H]1NC(=O)[C@@H](NC(=O)[C@H](Cc2ccc(O)cc2)NC(C)=O)CSSC[C@@H](C(=O)N[C@H](C(=O)NCC(=O)N[C@@H](C)C(=O)N[C@@H](CCC(=O)O)C(=O)N[C@@H](CO)C(N)=O)[C@@H](C)O)NC(=O)[C@H](CCCNC(=N)N)NC(=O)[C@H](Cc2c[nH]cn2)NC(=O)[C@H](CCC(=O)O)NC(=O)CNC(=O)[C@H](Cc2c[nH]c3ccccc23)NC(=O)[C@H](CC(=O)O)NC(=O)[C@H](CCC(N)=O)NC(=O)[C@H](Cc2c[nH]c3ccccc23)NC1=O [Compound 66] (Ac-YCIWQDWGEHRCTGAES-NH2; disulfide 2-12),"− (“−” denotes lack of solubility at the given condition, as UV absorbance at 340 nm exceeds 0.1 AU and/or it is visibly turbid or contains particles)","− (“−” denotes lack of solubility at the given condition, as UV absorbance at 340 nm exceeds 0.1 AU and/or it is visibly turbid or contains particles)","+ (“+” denotes solubility at the given condition, as determined by UV absorbance being less than 0.1 AU at 340 nm and the sample being clear when manually inspected)","+ (“+” denotes solubility at the given condition, as determined by UV absorbance being less than 0.1 AU at 340 nm and the sample being clear when manually inspected)","+ (“+” denotes solubility at the given condition, as determined by UV absorbance being less than 0.1 AU at 340 nm and the sample being clear when manually inspected)",< 100
CC[C@H](C)[C@@H]1NC(=O)[C@@H](NC(=O)[C@H](Cc2ccccc2)NC(=O)[C@H](CCC(=O)O)NC(=O)[C@H](CO)NC(C)=O)CSSC[C@@H](C(=O)N[C@H](C(=O)NCC(=O)N[C@@H](C)C(=O)N[C@@H](CCC(=O)O)C(=O)N[C@@H](CO)C(N)=O)[C@@H](C)O)NC(=O)[C@H](CCCNC(=N)N)NC(=O)[C@H](Cc2c[nH]cn2)NC(=O)[C@H](CCC(=O)O)NC(=O)CNC(=O)[C@H](Cc2c[nH]c3ccccc23)NC(=O)[C@H](CC(=O)O)NC(=O)[C@H](CCC(N)=O)NC(=O)[C@H](Cc2cn(C)c3ccccc23)NC1=O [Compound 67] (Ac-SEFCI[Trp(1-Me)]QDWGEHRCTGAES-NH2; disulfide 4-14),"− (“−” denotes lack of solubility at the given condition, as UV absorbance at 340 nm exceeds 0.1 AU and/or it is visibly turbid or contains particles)","− (“−” denotes lack of solubility at the given condition, as UV absorbance at 340 nm exceeds 0.1 AU and/or it is visibly turbid or contains particles)","+ (“+” denotes solubility at the given condition, as determined by UV absorbance being less than 0.1 AU at 340 nm and the sample being clear when manually inspected)","+ (“+” denotes solubility at the given condition, as determined by UV absorbance being less than 0.1 AU at 340 nm and the sample being clear when manually inspected)","+ (“+” denotes solubility at the given condition, as determined by UV absorbance being less than 0.1 AU at 340 nm and the sample being clear when manually inspected)",< 100
CC[C@H](C)[C@@H]1NC(=O)[C@@H](NC(=O)[C@H](Cc2ccc(O)cc2)NC(C)=O)CSSC[C@@H](C(=O)N[C@H](C(=O)N[C@@H](CCC(=O)O)C(=O)N[C@@H](C)C(=O)NCC(=O)N[C@@H](CO)C(N)=O)[C@@H](C)O)NC(=O)[C@H](CCCNC(=N)N)NC(=O)[C@H](Cc2c[nH]cn2)NC(=O)[C@H](CCC(=O)O)NC(=O)CNC(=O)[C@H](Cc2c[nH]c3ccccc23)NC(=O)[C@H](CC(=O)O)NC(=O)[C@H](CCC(N)=O)NC(=O)[C@H](Cc2cn(C)c3ccccc23)NC1=O [Compound 68] (Ac-YCI[Trp(1-Me)]QDWGEHRCTEAGS-NH2; disulfide 2-12),"− (“−” denotes lack of solubility at the given condition, as UV absorbance at 340 nm exceeds 0.1 AU and/or it is visibly turbid or contains particles)","− (“−” denotes lack of solubility at the given condition, as UV absorbance at 340 nm exceeds 0.1 AU and/or it is visibly turbid or contains particles)","+ (“+” denotes solubility at the given condition, as determined by UV absorbance being less than 0.1 AU at 340 nm and the sample being clear when manually inspected)","+ (“+” denotes solubility at the given condition, as determined by UV absorbance being less than 0.1 AU at 340 nm and the sample being clear when manually inspected)","+ (“+” denotes solubility at the given condition, as determined by UV absorbance being less than 0.1 AU at 340 nm and the sample being clear when manually inspected)",< 100

# Reference: patent publication US11965039B2, “Compstatin analogues and their medical uses” (priority 2018, dated 2024)
